Experimental data from the kinase profiling compilation of Christmann-Franck et al. (2016).

Assays:
Test in all cases: radiometric filter-binding kinase assay
RPS6KA3 KD1 KD2 (human) = RPS6KA3 KD1 KD2 (human) (UniProt P51812)
IKBKE (human) = IKBKE (human) (UniProt Q14164)
BRSK2 (human) = BRSK2 (human) (UniProt Q8IWQ3)
PRKAA1 or PRKAA2 (rat) = settings: accession and sequence are those of the human protein
TAOK1 (human) = TAOK1 (human) (UniProt Q7L7X3)
SRC (human) = SRC (human) (UniProt P12931)
MAP2K1 (human) = MAP2K1 (human) (UniProt Q02750)
MAP2K1 (human), sequence (Q02750 whole entry, looked up): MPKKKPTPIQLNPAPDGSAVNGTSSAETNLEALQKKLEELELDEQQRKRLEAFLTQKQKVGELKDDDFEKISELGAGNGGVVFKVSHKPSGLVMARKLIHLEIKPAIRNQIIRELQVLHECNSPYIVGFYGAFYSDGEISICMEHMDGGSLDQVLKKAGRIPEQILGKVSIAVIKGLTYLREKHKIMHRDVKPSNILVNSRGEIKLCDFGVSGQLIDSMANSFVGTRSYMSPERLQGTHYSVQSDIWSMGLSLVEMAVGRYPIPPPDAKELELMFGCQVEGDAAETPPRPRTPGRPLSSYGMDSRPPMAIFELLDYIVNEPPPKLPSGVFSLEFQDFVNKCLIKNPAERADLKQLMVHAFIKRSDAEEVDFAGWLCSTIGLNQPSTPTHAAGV

PAK7 (human) = PAK7 (human) (UniProt Q9P286)
PAK4 (human) = PAK4 (human) (UniProt O96013)
PAK4 (human), sequence (O96013 whole entry, looked up): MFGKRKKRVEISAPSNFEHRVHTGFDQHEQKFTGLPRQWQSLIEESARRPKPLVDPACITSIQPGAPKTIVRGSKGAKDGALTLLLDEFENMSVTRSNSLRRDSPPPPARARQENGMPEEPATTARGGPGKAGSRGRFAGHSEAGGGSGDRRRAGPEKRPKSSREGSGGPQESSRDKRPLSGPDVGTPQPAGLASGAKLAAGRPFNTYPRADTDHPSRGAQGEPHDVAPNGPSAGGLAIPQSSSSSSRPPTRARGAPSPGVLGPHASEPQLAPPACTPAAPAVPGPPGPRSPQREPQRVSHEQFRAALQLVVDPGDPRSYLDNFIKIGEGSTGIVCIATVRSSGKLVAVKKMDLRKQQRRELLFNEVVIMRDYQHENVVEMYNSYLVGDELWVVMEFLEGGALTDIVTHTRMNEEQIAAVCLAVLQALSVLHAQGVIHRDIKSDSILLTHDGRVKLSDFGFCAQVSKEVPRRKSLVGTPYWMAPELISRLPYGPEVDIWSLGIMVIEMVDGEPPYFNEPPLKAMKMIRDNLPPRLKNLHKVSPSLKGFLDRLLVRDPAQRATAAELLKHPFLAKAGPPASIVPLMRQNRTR

MAPKAPK3 (human) = MAPKAPK3 (human) (UniProt Q16644)
MAPKAPK3 (human), sequence (Q16644 whole entry, looked up): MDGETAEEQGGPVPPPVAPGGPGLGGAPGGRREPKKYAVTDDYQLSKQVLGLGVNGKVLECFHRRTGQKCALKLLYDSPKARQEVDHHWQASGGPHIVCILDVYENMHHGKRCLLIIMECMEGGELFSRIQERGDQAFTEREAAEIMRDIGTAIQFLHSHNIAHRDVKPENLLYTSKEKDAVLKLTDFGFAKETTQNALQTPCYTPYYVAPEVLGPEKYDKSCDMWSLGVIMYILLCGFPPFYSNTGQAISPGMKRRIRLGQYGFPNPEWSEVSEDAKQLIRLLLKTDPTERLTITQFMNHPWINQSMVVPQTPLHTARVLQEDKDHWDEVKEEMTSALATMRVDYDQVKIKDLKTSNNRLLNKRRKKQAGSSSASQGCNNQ

INSRR (human) = INSRR (human) (UniProt P14616)
AURKA (human) = AURKA (human) (UniProt O14965)
AURKA (human), sequence (O14965 whole entry, looked up): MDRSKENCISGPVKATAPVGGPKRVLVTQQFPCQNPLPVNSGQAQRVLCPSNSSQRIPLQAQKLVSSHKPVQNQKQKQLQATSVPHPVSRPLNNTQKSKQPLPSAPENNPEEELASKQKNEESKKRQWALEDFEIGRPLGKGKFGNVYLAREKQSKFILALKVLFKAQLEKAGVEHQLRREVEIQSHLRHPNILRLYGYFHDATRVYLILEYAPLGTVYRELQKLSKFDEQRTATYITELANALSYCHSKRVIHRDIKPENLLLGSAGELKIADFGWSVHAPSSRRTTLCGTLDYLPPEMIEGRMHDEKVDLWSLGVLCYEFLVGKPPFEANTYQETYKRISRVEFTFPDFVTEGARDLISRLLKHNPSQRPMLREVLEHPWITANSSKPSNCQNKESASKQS

GSK3B (human) = GSK3B (human) (UniProt P49841)
PTK6 (human) = PTK6 (human) (UniProt Q13882)
PTK6 (human), sequence (Q13882 whole entry, looked up): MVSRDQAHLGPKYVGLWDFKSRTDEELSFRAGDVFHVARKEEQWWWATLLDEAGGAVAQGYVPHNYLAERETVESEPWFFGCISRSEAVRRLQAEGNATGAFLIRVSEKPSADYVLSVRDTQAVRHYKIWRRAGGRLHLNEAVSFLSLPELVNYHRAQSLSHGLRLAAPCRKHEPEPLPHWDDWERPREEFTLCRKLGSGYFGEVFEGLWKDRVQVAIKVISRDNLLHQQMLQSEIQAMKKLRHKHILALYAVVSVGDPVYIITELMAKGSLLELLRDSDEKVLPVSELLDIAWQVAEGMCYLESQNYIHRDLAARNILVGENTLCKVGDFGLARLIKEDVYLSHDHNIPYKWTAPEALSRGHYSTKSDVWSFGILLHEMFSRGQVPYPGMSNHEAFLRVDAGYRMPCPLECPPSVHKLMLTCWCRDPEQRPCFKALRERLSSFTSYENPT

EPHB2 (human) = EPHB2 (human) (UniProt P29323)
MAPK3 (human) = MAPK3 (human) (UniProt P27361)
NEK2 (human) = NEK2 (human) (UniProt P51955)
MARK1 (human) = MARK1 (human) (UniProt Q9P0L2)
MAPK1 (human) = MAPK1 (human) (UniProt P28482)
MAPK1 (human), sequence (P28482 whole entry, looked up): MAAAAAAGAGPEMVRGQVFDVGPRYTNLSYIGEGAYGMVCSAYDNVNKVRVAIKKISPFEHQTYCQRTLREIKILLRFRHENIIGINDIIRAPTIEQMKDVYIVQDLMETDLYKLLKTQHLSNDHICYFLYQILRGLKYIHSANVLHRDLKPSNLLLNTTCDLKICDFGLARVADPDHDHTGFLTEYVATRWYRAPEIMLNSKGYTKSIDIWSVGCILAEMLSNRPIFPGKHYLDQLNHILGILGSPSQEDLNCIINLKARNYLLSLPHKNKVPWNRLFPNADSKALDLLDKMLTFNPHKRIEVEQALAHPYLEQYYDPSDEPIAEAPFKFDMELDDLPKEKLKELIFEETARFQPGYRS

INSR (human) = INSR (human) (UniProt P06213)
INSR (human), sequence (P06213 whole entry, looked up): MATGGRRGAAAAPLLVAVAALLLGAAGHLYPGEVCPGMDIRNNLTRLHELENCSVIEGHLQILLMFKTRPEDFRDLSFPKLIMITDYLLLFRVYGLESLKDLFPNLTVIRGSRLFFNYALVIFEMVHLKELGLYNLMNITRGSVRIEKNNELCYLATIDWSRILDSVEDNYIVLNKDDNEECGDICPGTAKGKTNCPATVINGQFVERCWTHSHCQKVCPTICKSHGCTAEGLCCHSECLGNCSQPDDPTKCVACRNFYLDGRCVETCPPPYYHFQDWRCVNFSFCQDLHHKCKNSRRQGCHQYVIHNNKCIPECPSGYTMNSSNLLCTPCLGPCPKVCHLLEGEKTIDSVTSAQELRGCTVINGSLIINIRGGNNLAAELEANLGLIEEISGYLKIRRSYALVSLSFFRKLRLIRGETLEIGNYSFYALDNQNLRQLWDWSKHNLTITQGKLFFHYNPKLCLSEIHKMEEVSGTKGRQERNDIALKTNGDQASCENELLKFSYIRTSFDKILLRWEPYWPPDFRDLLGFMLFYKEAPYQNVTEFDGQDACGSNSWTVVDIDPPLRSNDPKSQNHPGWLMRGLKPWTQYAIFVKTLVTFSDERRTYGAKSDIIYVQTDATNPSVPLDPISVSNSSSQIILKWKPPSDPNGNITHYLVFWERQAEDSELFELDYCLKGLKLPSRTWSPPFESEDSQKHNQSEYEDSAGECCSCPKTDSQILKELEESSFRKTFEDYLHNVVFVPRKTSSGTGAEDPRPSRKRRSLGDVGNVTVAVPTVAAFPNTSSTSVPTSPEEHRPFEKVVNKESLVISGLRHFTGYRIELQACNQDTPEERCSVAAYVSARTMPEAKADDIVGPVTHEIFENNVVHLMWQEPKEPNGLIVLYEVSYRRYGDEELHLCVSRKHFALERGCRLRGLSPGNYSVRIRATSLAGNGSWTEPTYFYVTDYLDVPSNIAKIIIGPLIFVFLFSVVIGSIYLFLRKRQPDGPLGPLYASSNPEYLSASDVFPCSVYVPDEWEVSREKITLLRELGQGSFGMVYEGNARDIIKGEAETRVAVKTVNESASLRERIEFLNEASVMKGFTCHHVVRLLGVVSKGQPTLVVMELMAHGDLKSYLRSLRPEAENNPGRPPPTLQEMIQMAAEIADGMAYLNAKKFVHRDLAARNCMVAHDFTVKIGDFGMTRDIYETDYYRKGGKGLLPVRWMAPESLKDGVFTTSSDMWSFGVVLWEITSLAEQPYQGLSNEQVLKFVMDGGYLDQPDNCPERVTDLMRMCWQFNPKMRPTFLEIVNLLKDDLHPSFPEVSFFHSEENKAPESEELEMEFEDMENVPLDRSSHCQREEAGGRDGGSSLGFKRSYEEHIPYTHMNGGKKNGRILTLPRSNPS

MAPK12 (human) = MAPK12 (human) (UniProt P53778)
ZAP70 (human) = ZAP70 (human) (UniProt P43403)
YES1 (human) = YES1 (human) (UniProt P07947)
MELK (human) = MELK (human) (UniProt Q14680)
MAPK15 (human) = MAPK15 (human) (UniProt Q8TD08)
DAPK1 (human) = DAPK1 (human) (UniProt P53355)
MAP3K5 (human) = MAP3K5 (human) (UniProt Q99683)
PIM2 (human) = PIM2 (human) (UniProt Q9P1W9)
PIM2 (human), sequence (Q9P1W9 whole entry, looked up): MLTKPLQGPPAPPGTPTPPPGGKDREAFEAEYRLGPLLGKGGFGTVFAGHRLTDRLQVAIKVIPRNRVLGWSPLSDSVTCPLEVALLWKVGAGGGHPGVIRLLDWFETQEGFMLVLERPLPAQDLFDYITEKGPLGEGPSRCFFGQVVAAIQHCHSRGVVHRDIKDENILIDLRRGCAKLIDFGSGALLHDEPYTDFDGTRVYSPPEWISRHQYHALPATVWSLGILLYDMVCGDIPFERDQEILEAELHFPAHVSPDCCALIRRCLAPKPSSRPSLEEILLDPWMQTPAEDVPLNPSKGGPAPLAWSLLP

PIM1 (human) = PIM1 (human) (UniProt P11309)

RPS6KA3 KD1 KD2 (human), sequence (P51812 whole entry, looked up): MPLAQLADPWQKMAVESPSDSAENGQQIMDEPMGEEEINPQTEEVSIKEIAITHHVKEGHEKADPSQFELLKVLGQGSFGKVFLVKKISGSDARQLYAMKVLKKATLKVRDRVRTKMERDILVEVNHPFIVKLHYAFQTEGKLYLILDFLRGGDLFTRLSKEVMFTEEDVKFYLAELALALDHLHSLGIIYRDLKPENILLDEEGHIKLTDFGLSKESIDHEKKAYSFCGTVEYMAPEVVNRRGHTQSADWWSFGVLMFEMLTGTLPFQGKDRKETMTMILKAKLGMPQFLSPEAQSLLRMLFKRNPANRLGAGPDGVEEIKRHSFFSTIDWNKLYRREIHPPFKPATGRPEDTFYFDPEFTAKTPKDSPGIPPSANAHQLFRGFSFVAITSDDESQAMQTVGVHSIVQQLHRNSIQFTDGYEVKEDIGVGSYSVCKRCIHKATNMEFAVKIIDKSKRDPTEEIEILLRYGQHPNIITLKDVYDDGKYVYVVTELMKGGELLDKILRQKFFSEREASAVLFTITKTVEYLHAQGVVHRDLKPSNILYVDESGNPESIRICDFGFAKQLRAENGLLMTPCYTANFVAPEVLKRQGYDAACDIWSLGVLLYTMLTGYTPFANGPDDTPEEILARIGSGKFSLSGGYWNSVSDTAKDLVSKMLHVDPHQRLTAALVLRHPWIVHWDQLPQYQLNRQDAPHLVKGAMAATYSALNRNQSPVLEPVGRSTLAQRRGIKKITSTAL

CCN1CCN(Cc2ccc(NC(=O)c3ccc(C)c(Oc4ccnc5[nH]ccc45)c3)cc2C(F)(F)F)CC1
residual activity (RPS6KA3 KD1 KD2 (human); compound 0.1 µM): 94.8% | residual activity (RPS6KA3 KD1 KD2 (human); compound 1.0 µM): 93.8% | residual activity (RPS6KA3 KD1 KD2 (human); compound 10.0 µM): 76.3% | residual activity (IKBKE (human); compound 0.1 µM): 106% | residual activity (IKBKE (human); compound 1.0 µM): 96.6% | residual activity (IKBKE (human); compound 10.0 µM): 80.1% | residual activity (BRSK2 (human); compound 0.1 µM): 100% | residual activity (BRSK2 (human); compound 1.0 µM): 94.8% | residual activity (BRSK2 (human); compound 10.0 µM): 88.8% | residual activity (PRKAA1 or PRKAA2 (rat); compound 0.1 µM): 106% | residual activity (PRKAA1 or PRKAA2 (rat); compound 1.0 µM): 91.7% | residual activity (PRKAA1 or PRKAA2 (rat); compound 10.0 µM): 85.2% | residual activity (TAOK1 (human); compound 0.1 µM): 98.9% | residual activity (TAOK1 (human); compound 1.0 µM): 67.3% | residual activity (TAOK1 (human); compound 10.0 µM): 26.9% | residual activity (SRC (human); compound 0.1 µM): 66.5% | residual activity (SRC (human); compound 1.0 µM): 9.72% | residual activity (SRC (human); compound 10.0 µM): 2.65% | residual activity (MAP2K1 (human); compound 0.1 µM): 106% | residual activity (MAP2K1 (human); compound 1.0 µM): 108% | residual activity (MAP2K1 (human); compound 10.0 µM): 93.2% | residual activity (PAK7 (human); compound 0.1 µM): 108% | residual activity (PAK7 (human); compound 1.0 µM): 104% | residual activity (PAK7 (human); compound 10.0 µM): 87.5% | residual activity (PAK4 (human); compound 0.1 µM): 109% | residual activity (PAK4 (human); compound 1.0 µM): 99.4% | residual activity (PAK4 (human); compound 10.0 µM): 77.8% | residual activity (MAPKAPK3 (human); compound 0.1 µM): 90.1% | residual activity (MAPKAPK3 (human); compound 1.0 µM): 82.3% | residual activity (MAPKAPK3 (human); compound 10.0 µM): 96.7% | residual activity (INSRR (human); compound 0.1 µM): 112% | residual activity (INSRR (human); compound 1.0 µM): 91.3% | residual activity (INSRR (human); compound 10.0 µM): 46.1% | residual activity (AURKA (human); compound 0.1 µM): 120% | residual activity (AURKA (human); compound 1.0 µM): 121% | residual activity (AURKA (human); compound 10.0 µM): 102% | residual activity (GSK3B (human); compound 0.1 µM): 102% | residual activity (GSK3B (human); compound 1.0 µM): 104% | residual activity (GSK3B (human); compound 10.0 µM): 101% | residual activity (PTK6 (human); compound 0.1 µM): 101% | residual activity (PTK6 (human); compound 1.0 µM): 43.1% | residual activity (PTK6 (human); compound 10.0 µM): 6.76% | residual activity (EPHB2 (human); compound 0.1 µM): 88.5% | residual activity (EPHB2 (human); compound 1.0 µM): 23.4% | residual activity (EPHB2 (human); compound 10.0 µM): 3.11% | residual activity (MAPK3 (human); compound 0.1 µM): 99% | residual activity (MAPK3 (human); compound 1.0 µM): 103% | residual activity (MAPK3 (human); compound 10.0 µM): 99.7% | residual activity (NEK2 (human); compound 0.1 µM): 112% | residual activity (NEK2 (human); compound 1.0 µM): 107% | residual activity (NEK2 (human); compound 10.0 µM): 93.4% | residual activity (MARK1 (human); compound 0.1 µM): 114% | residual activity (MARK1 (human); compound 1.0 µM): 97.2% | residual activity (MARK1 (human); compound 10.0 µM): 103% | residual activity (MAPK1 (human); compound 0.1 µM): 101% | residual activity (MAPK1 (human); compound 1.0 µM): 102% | residual activity (MAPK1 (human); compound 10.0 µM): 106% | residual activity (INSR (human); compound 0.1 µM): 86.1% | residual activity (INSR (human); compound 1.0 µM): 81.6% | residual activity (INSR (human); compound 10.0 µM): 18% | residual activity (MAPK12 (human); compound 1.0 µM): 37.8% | residual activity (MAPK12 (human); compound 10.0 µM): 10.8% | residual activity (ZAP70 (human); compound 0.1 µM): 92.4% | residual activity (ZAP70 (human); compound 1.0 µM): 89.5% | residual activity (ZAP70 (human); compound 10.0 µM): 59.9% | residual activity (YES1 (human); compound 0.1 µM): 52.9% | residual activity (YES1 (human); compound 1.0 µM): 9.77% | residual activity (YES1 (human); compound 10.0 µM): 10.6% | residual activity (MELK (human); compound 0.1 µM): 115% | residual activity (MELK (human); compound 1.0 µM): 99.5% | residual activity (MELK (human); compound 10.0 µM): 64.1% | residual activity (MAPK15 (human); compound 0.1 µM): 106% | residual activity (MAPK15 (human); compound 10.0 µM): 44.6% | residual activity (DAPK1 (human); compound 1.0 µM): 80.9% | residual activity (DAPK1 (human); compound 10.0 µM): 84.1% | residual activity (MAP3K5 (human); compound 0.1 µM): 111% | residual activity (MAP3K5 (human); compound 1.0 µM): 105% | residual activity (MAP3K5 (human); compound 10.0 µM): 76.5% | residual activity (PIM2 (human); compound 0.1 µM): 106% | residual activity (PIM2 (human); compound 1.0 µM): 95% | residual activity (PIM2 (human); compound 10.0 µM): 102% | residual activity (PIM1 (human); compound 0.1 µM): 120% | residual activity (PIM1 (human); compound 1.0 µM): 117% | residual activity (PIM1 (human); compound 10.0 µM): 87.4%
